Columns and labels:
Type in all cases: in vivo
[1] = tested on: Diabrotica Balteata (Corn Root Worm); experiment: Example B1: Diabrotica balteata (corn root worm), maize sprouts sprayed, L2 larvae; settings: 96 h, application rate of 200 ppm, 4 days after infestation, L2 larvae, read-out: control in at least one of the two categories (mortality or growth inhibition)
Method in brief: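 Read-out is mortality plus growth inhibition relative to untreated controls, assessed 4 days after infestation. Sprouts resting on agar are sprayed with aqueous solutions derived from 10′000 ppm DMSO stocks and left to dry before L2 larvae (6 to 10 per well) are added.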

[2] = tested on: Chilo suppressalis (Striped Rice Stemborer); experiment: Example B3: Chilo suppressalis (striped rice stemborer), artificial diet, L2 larvae; settings: 144 h, application rate of 200 ppm, 6 days after infestation, L2 larvae, read-out: control in at least one of the three categories (mortality, anti-feedant effect, or growth inhibition)
Method in brief: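 First, artificial diet was treated with aqueous solutions prepared from 10'000 ppm DMSO stocks; second, after drying, L2 larvae (6-8/well) were added; third, effects were assessed at 6 days against untreated controls, counting control when any of three categories was higher.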

[3] = tested on: Plutella xylostella (Diamond Back Moth); experiment: Example B4: Plutella xylostella (diamond back moth), artificial diet, eggs, 24-well; settings: 192 h, application rate of 200 ppm, 8 days after infestation, eggs, read-out: control in at least one of the two categories (mortality or growth inhibition)
Description: 24-well microtiter plates with artificial diet were treated with aqueous test solutions prepared from 10′000 ppm DMSO stock solutions by pipetting. After drying, Plutella eggs were pipetted through a plastic stencil onto a gel blotting paper and the plate was closed with it. The samples were assessed for mortality and growth inhibition in comparison to untreated samples 8 days after infestation.

[4] = tested on: Spodoptera littoralis (Egyptian Cotton Leaf Worm); experiment: Example B7: Spodoptera littoralis (Egyptian cotton leaf worm), cotton leaf discs sprayed, L1 larvae; settings: foliar, 72 h, application rate of 200 ppm, 3 days after infestation, L1 larvae, read-out: control in at least one of the three categories (mortality, anti-feedant effect, or growth inhibition)
Description: Cotton leaf discs were placed onto agar in 24-well microtiter plates and sprayed with aqueous test solutions prepared from 10′000 ppm DMSO stock solutions. After drying the leaf discs were infested with five L1 larvae. The samples were assessed for mortality, anti-feeding effect, and growth inhibition in comparison to untreated samples 3 days after infestation. Control of Spodoptera littoralis by a test sample is given when at least one of the categories mortality, anti-feedant effect, and growth inhibition is higher than the untreated sample.

CC(Nc1ncnc2c(C(F)(F)F)cc(C(F)(F)F)cc12)c1nccnc1-n1nccn1 (stereo not shown) [P.56, N-[1-[3-(triazol-2-yl)pyrazin-2-yl]ethyl]-6,8-bis(trifluoromethyl)quina-zolin-4-amine]
≥ 80%: percent control (mortality or growth inhibition) at 200 ppm [1] | percent control (mortality, anti-feedant effect or growth inhibition) at 200 ppm [2] | percent control (mortality or growth inhibition) at 200 ppm [3] | percent control (mortality, anti-feedant effect or growth inhibition) at 200 ppm [4]

CC(Nc1ncnc2c(Br)cc(C(F)(F)F)cc12)c1nccnc1-c1ncccn1 (stereo not shown) [P.96, 8-bromo-N-[1-(3-pyrimidin-2-ylpyrazin-2-yl)ethyl]-6-(trifluoromethyl)quinazolin-4-amine]
≥ 80%: percent control (mortality or growth inhibition) at 200 ppm [1] | percent control (mortality, anti-feedant effect or growth inhibition) at 200 ppm [2] | percent control (mortality or growth inhibition) at 200 ppm [3] | percent control (mortality, anti-feedant effect or growth inhibition) at 200 ppm [4]

CC(c1nccnc1-c1ncccn1)N(C)c1ncnc2c(Br)cc(C(F)(F)F)cc12 (stereo not shown) [P.97, 8-bromo-N-methyl-N-[1-(3-pyrimidin-2-ylpyrazin-2-yl)ethyl]-6-(trifluoromethyl)quinazolin-4-amine]
≥ 80%: percent control (mortality or growth inhibition) at 200 ppm [1] | percent control (mortality, anti-feedant effect or growth inhibition) at 200 ppm [2] | percent control (mortality or growth inhibition) at 200 ppm [3] | percent control (mortality, anti-feedant effect or growth inhibition) at 200 ppm [4]

CC(c1nccnc1-c1ncccn1)N(CC1CC1)c1ncnc2c(Br)cc(C(F)(F)F)cc12 (stereo not shown) [P.99, 8-bromo-N-(cyclopropylmethyl)-N-[1-(3-pyrimidin-2-ylpyrazin-2-yl)ethyl]-6-(trifluoromethyl)quinazolin-4-amine]
≥ 80%: percent control (mortality or growth inhibition) at 200 ppm [1] | percent control (mortality, anti-feedant effect or growth inhibition) at 200 ppm [2] | percent control (mortality or growth inhibition) at 200 ppm [3] | percent control (mortality, anti-feedant effect or growth inhibition) at 200 ppm [4]

CC(c1nccnc1-c1ncccn1)N(C)c1ncnc2c(Cl)cc(C(F)(F)F)cc12 (stereo not shown) [P.100, 8-chloro-N-methyl-N-[1-(3-pyrimidin-2-ylpyrazin-2-yl)ethyl]-6-(trifluoromethyl)quinazolin-4-amine]
≥ 80%: percent control (mortality or growth inhibition) at 200 ppm [1] | percent control (mortality, anti-feedant effect or growth inhibition) at 200 ppm [2] | percent control (mortality or growth inhibition) at 200 ppm [3] | percent control (mortality, anti-feedant effect or growth inhibition) at 200 ppm [4]

CC(Nc1ncnc2c(Cl)cc(C(F)(F)F)cc12)c1nccnc1-c1ncccn1 (stereo not shown) [P.101, 8-chloro-N-[1-(3-pyrimidin-2-ylpyrazin-2-yl)ethyl]-6-(trifluoromethyl)quinazolin-4-amine]
≥ 80%: percent control (mortality or growth inhibition) at 200 ppm [1] | percent control (mortality, anti-feedant effect or growth inhibition) at 200 ppm [2] | percent control (mortality or growth inhibition) at 200 ppm [3] | percent control (mortality, anti-feedant effect or growth inhibition) at 200 ppm [4]

CC(c1nccnc1-n1nccn1)N(C)c1ncnc2c(Cl)cc(C(F)(F)F)cc12 (stereo not shown) [P.102, 8-chloro-N-methyl-N-[1-[3-(triazol-2-yl)pyrazin-2-yl]ethyl]-6-(trifluoromethyl)quinazolin-4-amine]
≥ 80%: percent control (mortality or growth inhibition) at 200 ppm [1] | percent control (mortality, anti-feedant effect or growth inhibition) at 200 ppm [2] | percent control (mortality or growth inhibition) at 200 ppm [3] | percent control (mortality, anti-feedant effect or growth inhibition) at 200 ppm [4]

CC(c1nccnc1-n1nccn1)N(C)c1ncnc2c(C(F)(F)F)cc(C(F)(F)F)cc12 (stereo not shown) [P.103, N-methyl-N-[1-[3-(triazol-2-yl)pyrazin-2-yl]ethyl]-6,8-bis(trifluoromethyl)quina-zolin-4-amine]
≥ 80%: percent control (mortality or growth inhibition) at 200 ppm [1] | percent control (mortality, anti-feedant effect or growth inhibition) at 200 ppm [2] | percent control (mortality or growth inhibition) at 200 ppm [3] | percent control (mortality, anti-feedant effect or growth inhibition) at 200 ppm [4]

CC(c1nccnc1-n1nccn1)N(C)c1ncnc2c(Br)cc(C(F)(F)F)cc12 (stereo not shown) [P.104, 8-bromo-N-methyl-N-[1-[3-(triazol-2-yl)pyrazin-2-yl]ethyl]-6-(trifluoromethyl)quinazolin-4-amine]
≥ 80%: percent control (mortality or growth inhibition) at 200 ppm [1] | percent control (mortality, anti-feedant effect or growth inhibition) at 200 ppm [2] | percent control (mortality or growth inhibition) at 200 ppm [3] | percent control (mortality, anti-feedant effect or growth inhibition) at 200 ppm [4]

CC(c1nccnc1-n1nccn1)N(C)c1ncnc2c(C(F)(F)F)cc(Br)cc12 (stereo not shown) [P.105, 6-bromo-N-methyl-N-[1-[3-(triazol-2-yl)pyrazin-2-yl]ethyl]-8-(trifluoromethyl)quinazolin-4-amine]
≥ 80%: percent control (mortality or growth inhibition) at 200 ppm [1] | percent control (mortality, anti-feedant effect or growth inhibition) at 200 ppm [2] | percent control (mortality or growth inhibition) at 200 ppm [3] | percent control (mortality, anti-feedant effect or growth inhibition) at 200 ppm [4]

CC(c1nccnc1-c1ncccn1)N(CC1CC1)c1ncnc2c(C(F)(F)F)cc(C(F)(F)F)cc12 (stereo not shown) [P.108, N-(cyclopropylmethyl)-N-[1-(3-pyrimidin-2-ylpyrazin-2-yl)ethyl]-6,8-bis(trifluoromethyl)quina-zolin-4-amine]
≥ 80%: percent control (mortality or growth inhibition) at 200 ppm [1] | percent control (mortality, anti-feedant effect or growth inhibition) at 200 ppm [2] | percent control (mortality or growth inhibition) at 200 ppm [3] | percent control (mortality, anti-feedant effect or growth inhibition) at 200 ppm [4]

CC(Nc1ncnc2c(C(F)(F)F)cc(C(F)(F)F)cc12)c1nccnc1-c1ccc(OC(F)F)cn1 (stereo not shown) [P.109, N-[1-[3-[5-(difluoromethoxy)-2-pyridyl]pyrazin-2-yl]ethyl]-6,8-bis(trifluoromethyl)quina-zolin-4-amine]
≥ 80%: percent control (mortality or growth inhibition) at 200 ppm [1] | percent control (mortality, anti-feedant effect or growth inhibition) at 200 ppm [2] | percent control (mortality or growth inhibition) at 200 ppm [3] | percent control (mortality, anti-feedant effect or growth inhibition) at 200 ppm [4]

CC(c1nccnc1-c1ccc(OC(F)F)cn1)N(C)c1ncnc2c(C(F)(F)F)cc(C(F)(F)F)cc12 (stereo not shown) [P.110, N-[1-[3-[5-(difluoromethoxy)-2-pyridyl]pyrazin-2-yl]ethyl]-N-methyl-6,8-bis(trifluoromethyl)quina-zolin-4-amine]
≥ 80%: percent control (mortality or growth inhibition) at 200 ppm [1] | percent control (mortality, anti-feedant effect or growth inhibition) at 200 ppm [2] | percent control (mortality or growth inhibition) at 200 ppm [3] | percent control (mortality, anti-feedant effect or growth inhibition) at 200 ppm [4]

CC(Nc1ncnc2c(Br)cc(C(F)(F)F)cc12)c1nccnc1-c1ccc(OC(F)F)cn1 (stereo not shown) [P.111, 8-bromo-N-[1-[3-[5-(difluoromethoxy)-2-pyridyl]pyrazin-2-yl]ethyl]-6-(trifluoromethyl)quinazolin-4-amine]
≥ 80%: percent control (mortality or growth inhibition) at 200 ppm [1] | percent control (mortality, anti-feedant effect or growth inhibition) at 200 ppm [2] | percent control (mortality or growth inhibition) at 200 ppm [3] | percent control (mortality, anti-feedant effect or growth inhibition) at 200 ppm [4]

CC(c1nccnc1-c1ccc(OC(F)F)cn1)N(C)c1ncnc2c(Cl)cc(C(F)(F)F)cc12 (stereo not shown) [P.112, 8-chloro-N-[1-[3-[5-(difluroomethoxy)-2-pyridyl]pyrazin-2-yl]ethyl]-N-methyl-6-(trifluoromethyl)quinazolin-4-amine]
≥ 80%: percent control (mortality or growth inhibition) at 200 ppm [1] | percent control (mortality, anti-feedant effect or growth inhibition) at 200 ppm [2] | percent control (mortality or growth inhibition) at 200 ppm [3] | percent control (mortality, anti-feedant effect or growth inhibition) at 200 ppm [4]

CC(Nc1ncnc2c(Cl)cc(C(F)(F)F)cc12)c1nccnc1-c1ccc(OC(F)F)cn1 (stereo not shown) [P.113, 8-chloro-N-[1-[3-[5-(difluoromethoxy)-2-pyridyl]pyrazin-2-yl]ethyl]-6-(trifluoromethyl)quinazolin-4-amine]
≥ 80%: percent control (mortality or growth inhibition) at 200 ppm [1] | percent control (mortality, anti-feedant effect or growth inhibition) at 200 ppm [2] | percent control (mortality or growth inhibition) at 200 ppm [3] | percent control (mortality, anti-feedant effect or growth inhibition) at 200 ppm [4]

CC(c1nccnc1-c1ccc(OC(F)F)cn1)N(C)c1ncnc2c(Br)cc(C(F)(F)F)cc12 (stereo not shown) [P.114, 8-bromo-N-[1-[3-[5-(difluoromethoxy)-2-pyridyl]pyrazin-2-yl]ethyl]-N-methyl-6-(trifluoromethyl)quinazolin-4-amine]
≥ 80%: percent control (mortality or growth inhibition) at 200 ppm [1] | percent control (mortality, anti-feedant effect or growth inhibition) at 200 ppm [2] | percent control (mortality or growth inhibition) at 200 ppm [3] | percent control (mortality, anti-feedant effect or growth inhibition) at 200 ppm [4]

CC(Nc1ncnc2c(C(F)(F)F)cc(C(F)(F)F)cc12)c1nccnc1-c1ccc(C#N)cn1 (stereo not shown) [P.115, 6-[3-[1-[[6,8-bis(trifluoromethyl)quina-zolin-4-yl]amino]ethyl]pyrazin-2-yl]pyridine-3-carbonitrile]
≥ 80%: percent control (mortality or growth inhibition) at 200 ppm [1] | percent control (mortality, anti-feedant effect or growth inhibition) at 200 ppm [2] | percent control (mortality or growth inhibition) at 200 ppm [3] | percent control (mortality, anti-feedant effect or growth inhibition) at 200 ppm [4]

CC(c1nccnc1-c1ccc(C#N)cn1)N(C)c1ncnc2c(C(F)(F)F)cc(C(F)(F)F)cc12 (stereo not shown) [P.116, 6-[3-[1-[[6,8-bis(trifluoromethyl)quina-zolin-4-yl]-methyl-amino]ethyl]pyrazin-2-yl]pyridine-3-carbonitrile]
≥ 80%: percent control (mortality or growth inhibition) at 200 ppm [1] | percent control (mortality, anti-feedant effect or growth inhibition) at 200 ppm [2] | percent control (mortality or growth inhibition) at 200 ppm [3] | percent control (mortality, anti-feedant effect or growth inhibition) at 200 ppm [4]

From US20230002359A1, “PESTICIDALLY ACTIVE FUSED BICYCLIC HETEROAROMATIC COMPOUNDS” (priority 2019, published 2023)
